This test concerns the target T1, cytoplasmic kinase domain of human Flt-3 (GST-Flt-3) (Homo sapiens, UniProt P36888).
T1 construct: expressing the amino acid region amino acids 563-993 of the cytoplasmic kinase domain of human Flt-3; made in house; host or cells: Sf9 insect cells (baculovirus, pFbacG01 donor vector)
T1 sequence (P36888 563-993): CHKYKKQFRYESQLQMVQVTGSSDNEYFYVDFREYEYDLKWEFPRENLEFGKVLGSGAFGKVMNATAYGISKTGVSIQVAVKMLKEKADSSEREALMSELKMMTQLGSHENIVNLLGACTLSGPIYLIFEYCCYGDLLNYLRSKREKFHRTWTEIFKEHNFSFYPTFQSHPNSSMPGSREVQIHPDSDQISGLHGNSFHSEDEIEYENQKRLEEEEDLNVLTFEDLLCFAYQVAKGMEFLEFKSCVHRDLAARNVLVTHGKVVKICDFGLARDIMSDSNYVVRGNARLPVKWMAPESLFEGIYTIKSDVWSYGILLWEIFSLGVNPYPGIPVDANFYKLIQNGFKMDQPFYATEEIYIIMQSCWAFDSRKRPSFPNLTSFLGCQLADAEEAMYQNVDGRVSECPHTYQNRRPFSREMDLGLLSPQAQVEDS
Description: Inhibition of the protein tyrosine kinase activity of Flt-3 (GST-Flt-3, 33P incorporation into poly(Glu, Tyr)). It is filed as biochemical. The settings on record: purified GST-Flt-3, 8.0 μM ATP, poly(Glu, Tyr) 4:1, 20 min at ambient temperature. An excerpt: The baculovirus donor vector pFbacG01 (GIBCO) is used to generate a recombinant baculovirus expressing the amino acid region amino acids 563-993 of the cytoplasmic kinase domain of human Flt-3. The coding sequence for the cytoplasmic domain of Flt-3 is amplified by PCR from human c-DNA libraries (Clontech). The amplified DNA fragments and the pFbacG01 vector are made compatible for ligation by digestion with BamH1 and HindIII. Ligation of these DNA fragments results in the baculovirus donor plasmid Flt-3 (1.1). The production of the viruses, the expression of proteins in Sf9 cells and the purification of the GST-fused proteins are performed as follows: Production of virus: Transfer vector (pFbacG01-Flt-3) containing the Flt-3 kinase domain is transfected into the DH10Bac cell line (GIBCO) and the transfected cells are plated on selective agar plates. Colonies without insertion of the fusion sequence into the viral genome (carried by the bacteria) are blue. Single white colonies are picked and viral DNA (bacmid) is isolated from the bacteria by standard plasmid purification procedures. Sf9 or Sf21 cells (American Type Culture Collection) are then transfected in flasks with the viral DNA using Cellfectin reagent. Protein expression in Sf9 cells: Virus containing media is collected from the transfected cell culture and used for infection to increase its titre. Virus containing media obtained after two rounds of infection is used for large-scale protein expression. For large-scale protein expression 100 cm^2 round tissue culture plates are seeded with 5×10^7 cells/plate and infected with 1 mL of virus-containing media (approx. 5 MOIs). After 3 days the cells are scraped off the plate and centrifuged at 500 rpm for 5 min. Cell pellets from 10-20, 100 cm^2 plates are resuspended in 50 mL of ice-cold lysis buffer (25 mM Tris-HCl, pH 7.5, 2 mM EDTA, 1% NP-40, 1 mM DTT, 1 mM PMSF). The cells are stirred on ice for 15 min and then centrifuged at 5000 rpms for 20 min. Purification of GST-tagged proteins: The centrifuged cell lysate is loaded onto a 2 mL glutathione-sepharose column (Pharmacia) and washed three times with 10 mL of 25 mM Tris-HCl, pH 7.5, 2 mM EDTA, 1 mM DTT, 200 mM NaCl. The GST-tagged protein is then eluted by 10 applications (1 mL each) of 25 mM Tris-HCl, pH 7.5, 10 mM reduced-glutathione, 100 mM NaCl, 1 mM DTT, 10% Glycerol and stored at −70° C. Measurement of enzyme activity: Tyrosine protein kinase assays with purified GST-Flt-3 are carried out in a final volume of 30 μL containing 200-1800 ng of enzyme protein (depending on the specific activity), 20 mM Tris-HCl, pH 7.6, 3 mM MnCl2, 3 mM MgCl2, 1 mM DTT, 10 μM Na3VO4, 3 μg/mL poly(Glu, Tyr) 4:1, 1% DMSO, 8.0 μM ATP and 0.1 μCi [γ^33 P] ATP. The activity is assayed in the presence or absence of inhibitors, by measuring the incorporation of ^33P from [γ^33P] ATP into the poly(Glu, Tyr) substrate. The assay (30 μL) is carried out in 96-well plates at ambient temperature for 20 min and terminated by the addition of 20 μL of 125 mM EDTA. Subsequently, 40 μL of the reaction mixture is transferred onto Immobilon-PVDF membrane (Millipore, Bedford, Mass., USA) previously soaked for 5 min with methanol, rinsed with water, then soaked for 5 min with 0.5% H3PO4 and mounted on vacuum manifold with disconnected vacuum source. After spotting all samples, vacuum is connected and each well rinsed with 200 μL 0.5% H3PO4. Membranes are removed and washed 4× on a shaker with 1.0% H3PO4, once with ethanol. Membranes are counted after drying at ambient temperature, mounting in Packard TopCount 96-well frame, and addition of 10 μL/well of Microscint™ (Packard). IC50 values are calculated by linear regression analysis of the percentage inhibition of each compound in duplicate, at four concentrations (usually 0.01, 0.1, 1 and 10 μM). One unit of protein kinase activity is defined as 1 nmole of ^33P transferred from [γ^33P] ATP to the substrate protein per minute per mg of protein at 37° C. […]

A word on the IC50: it is the concentration needed to halve the response being measured. Low values mean higher potency, high ones lower potency.

`c1ccc(-c2cnc(Nc3ccc(OCCN4CCCC4)cc3)s2)cc1` [Example 1, (5-Phenyl-thiazol-2-yl)-[4-(2-pyrrolidin-1-yl-ethoxy)-phenyl]-amine]: the IC50 was 41 nM.
Compound `COc1ccc(-c2cnc(Nc3ccc(N4CCN(C)CC4)cc3)s2)cc1` [Example 5, [5-(4-Methoxy-phenyl)-thiazol-2-yl]-[4-(4-methyl-piperazin-1-yl)-phenyl]-amine] showed an IC50 of 24 nM.
Consider `Oc1ccc(-c2cnc(Nc3ccc(OCCN4CCCC4)cc3)s2)cc1` [Example 7, 4-{2-[4-(2-Pyrrolidin-1-yl-ethoxy)-phenylamino]-thiazol-5-yl}-phenol], for which the IC50 was 35 nM.
The compound `Oc1ccc(Nc2ncc(-c3ccsc3)s2)cc1` [Example 12, 4-(5-Thiophen-3-yl-thiazol-2-yl-amino)-phenol] had an IC50 of 34 nM.
As for `c1cc(-c2cnc(Nc3ccc(OCCN4CCCCC4)cc3)s2)cs1` [Example 16, [4-(2-Piperidin-1-yl-ethoxy)-phenyl]-(5-thiophen-3-yl-thiazol-2-yl)-amine], the figure is 22 nM.
`c1cc(-c2cc(Nc3ccc(OCCN4CCCC4)cc3)n[nH]2)cs1` [Example 34, [4-(2-Pyrrolidin-1-yl-ethoxy)-phenyl]-(5-thiophen-3-yl-1H-pyrazol-3-yl)-amine]: the IC50 was found to be 82 nM.
As to `CCN(CC)CCOc1ccc(Nc2cc(-c3ccsc3)[nH]n2)cc1` [Example 37, [4-(2-Diethylamino-ethoxy)-phenyl]-(5-thiophen-3-yl-1H-pyrazol-3-yl)-amine], the IC50 was found to be 31 nM.
